Measured values from PubChem BioAssay AID2060510 (Molecular Pharmacology Branch, DTP, NCI, 2025).

Test system: 439559-082-T-J2-PDC spheroids viability
Experiment: Anticancer human tumor 439559-082-T-J2-PDC patient-derived colon adenocarcinoma cell line growth inhibition [GQUAD]
Settings: for IC50: curve of first compound; for viability, T/C: stronger effect = lower value
Outline: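 Multi-cell-type spheroids of tumor cells with HUVEC and mesenchymal stem cells, treated with drug combinations. Concentrations descend in half-log steps from near clinical Cmax, or from 10 microM where Cmax is unknown; viability read-out.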

[1] = second compound 0.0316 µM, first compound 0.0316 µM
[2] = second compound 0.0316 µM, first compound 0.1 µM
[3] = second compound 0.0316 µM, first compound 0.316 µM
[4] = second compound 0.0316 µM, first compound 1 µM
[5] = second compound 0.0316 µM, first compound 3.16 µM
[6] = second compound 0.0316 µM, first compound 10 µM
[7] = second compound 0.1 µM, first compound 0.0316 µM
[8] = second compound 0.1 µM, first compound 0.1 µM
[9] = second compound 0.1 µM, first compound 0.316 µM
[10] = second compound 0.1 µM, first compound 1 µM
[11] = second compound 0.1 µM, first compound 3.16 µM
[12] = second compound 0.1 µM, first compound 10 µM
[13] = second compound 0.316 µM, first compound 0.0316 µM
[14] = second compound 0.316 µM, first compound 0.1 µM
[15] = second compound 0.316 µM, first compound 0.316 µM
[16] = second compound 0.316 µM, first compound 1 µM
[17] = second compound 0.316 µM, first compound 3.16 µM
[18] = second compound 0.316 µM, first compound 10 µM
[19] = second compound 1 µM, first compound 0.0316 µM
[20] = second compound 1 µM, first compound 0.1 µM
[21] = second compound 1 µM, first compound 0.316 µM
[22] = second compound 1 µM, first compound 1 µM
[23] = second compound 1 µM, first compound 3.16 µM
[24] = second compound 1 µM, first compound 10 µM
[25] = second compound 3.16 µM, first compound 0.0316 µM
[26] = second compound 3.16 µM, first compound 0.1 µM
[27] = second compound 3.16 µM, first compound 0.316 µM
[28] = second compound 3.16 µM, first compound 1 µM
[29] = second compound 3.16 µM, first compound 3.16 µM
[30] = second compound 3.16 µM, first compound 10 µM
[31] = second compound 10 µM, first compound 0.0316 µM
[32] = second compound 10 µM, first compound 0.1 µM
[33] = second compound 10 µM, first compound 0.316 µM
[34] = second compound 10 µM, first compound 1 µM
[35] = second compound 10 µM, first compound 3.16 µM
[36] = second compound 10 µM, first compound 10 µM
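Also: spheroids exposed to the agents for 7 days before readout.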
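For viability, T/C in this document: percent of luminescence signal in DMSO vehicle wells taken as 100% viability.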

SMILES: CC1COCCN1c1cc(-c2ccnn2C)c2ccnc(-c3ccn[nH]3)c2n1 (centres undefined) + CN(C)c1ccc(Nc2c3ccc(NC(=O)CCN4CCCC4)cc3nc3cc(NC(=O)CCN4CCCC4)ccc23)cc1
- IC50 (second compound 0.0316 µM): 237 nM
- IC50 (second compound 0.1 µM): 261 nM
- IC50 (second compound 0.316 µM): 224 nM
- IC50 (second compound 1 µM): 248 nM
- IC50 (second compound 3.16 µM): 221 nM
- IC50 (second compound 10 µM): 229 nM
- viability, T/C [1]: 97.9%
- viability, T/C [2]: 72.7%
- viability, T/C [3]: 41.9%
- viability, T/C [4]: 34.6%
- viability, T/C [5]: 35.3%
- viability, T/C [6]: 28.8%
- viability, T/C [7]: 104%
- viability, T/C [8]: 74.4%
- viability, T/C [9]: 43.1%
- viability, T/C [10]: 32.9%
- viability, T/C [11]: 30.9%
- viability, T/C [12]: 21.5%
- viability, T/C [13]: 97.1%
- viability, T/C [14]: 80.7%
- viability, T/C [15]: 36.7%
- viability, T/C [16]: 30.3%
- viability, T/C [17]: 30.2%
- viability, T/C [18]: 24.2%
- viability, T/C [19]: 89.6%
- viability, T/C [20]: 89.1%
- viability, T/C [21]: 39.5%
- viability, T/C [22]: 34.3%
- viability, T/C [23]: 32.6%
- viability, T/C [24]: 26.4%
- viability, T/C [25]: 90%
- viability, T/C [26]: 75.1%
- viability, T/C [27]: 38.9%
- viability, T/C [28]: 28.6%
- viability, T/C [29]: 30.1%
- viability, T/C [30]: 28.8%
- viability, T/C [31]: 92.9%
- viability, T/C [32]: 75.8%
- viability, T/C [33]: 40.4%
- viability, T/C [34]: 27.8%
- viability, T/C [35]: 37.1%
- viability, T/C [36]: 25.1%

SMILES: COc1ccc([C@@H](O)c2cc(-c3ncnc4cc(N5CCOCC5)ccc34)c(F)cc2Cl)nn1 + CN(C)c1ccc(Nc2c3ccc(NC(=O)CCN4CCCC4)cc3nc3cc(NC(=O)CCN4CCCC4)ccc23)cc1
- IC50 (second compound 0.0316 µM): > 10000 nM
- IC50 (second compound 0.1 µM): > 10000 nM
- IC50 (second compound 0.316 µM): > 10000 nM
- IC50 (second compound 1 µM): > 10000 nM
- IC50 (second compound 3.16 µM): > 10000 nM
- IC50 (second compound 10 µM): > 10000 nM
- viability, T/C [1]: 89.5%
- viability, T/C [2]: 98.3%
- viability, T/C [3]: 89.1%
- viability, T/C [4]: 99.7%
- viability, T/C [5]: 79.5%
- viability, T/C [6]: 83.8%
- viability, T/C [7]: 103%
- viability, T/C [8]: 101%
- viability, T/C [9]: 93.8%
- viability, T/C [10]: 96.1%
- viability, T/C [11]: 88.6%
- viability, T/C [12]: 76.5%
- viability, T/C [13]: 95.7%
- viability, T/C [14]: 92.8%
- viability, T/C [15]: 89.6%
- viability, T/C [16]: 79.8%
- viability, T/C [17]: 84%
- viability, T/C [18]: 86.7%
- viability, T/C [19]: 104%
- viability, T/C [20]: 89.1%
- viability, T/C [21]: 95.7%
- viability, T/C [22]: 91.2%
- viability, T/C [23]: 86%
- viability, T/C [24]: 76.4%
- viability, T/C [25]: 94.9%
- viability, T/C [26]: 108%
- viability, T/C [27]: 92.6%
- viability, T/C [28]: 81.1%
- viability, T/C [29]: 76%
- viability, T/C [30]: 79.1%
- viability, T/C [31]: 92.2%
- viability, T/C [32]: 77%
- viability, T/C [33]: 93.7%
- viability, T/C [34]: 71.9%
- viability, T/C [35]: 86.4%
- viability, T/C [36]: 73.4%
